The source made the active and inactive calls. How the calls were made is not given here.
System: CCRIS mutagenicity, Ames/micronucleus/aberration tests
Test: CCRIS mutagenicity studies
[1] = Test System: AMES SALMONELLA TYPHIMURIUM, Strain/Indicator: TA98, Metabolic Activation: NONE, Method: STANDARD PLATE
[2] = Test System: AMES SALMONELLA TYPHIMURIUM, Strain/Indicator: TA98, Metabolic Activation: RAT, LIVER, S-9, AROCLOR 1254, Method: STANDARD PLATE
[3] = Test System: AMES SALMONELLA TYPHIMURIUM, Strain/Indicator: TA100, Metabolic Activation: NONE, Method: STANDARD PLATE
[4] = Test System: AMES SALMONELLA TYPHIMURIUM, Strain/Indicator: TA100, Metabolic Activation: RAT, LIVER, S-9, AROCLOR 1254, Method: STANDARD PLATE
[5] = Test System: AMES SALMONELLA TYPHIMURIUM, Strain/Indicator: TA1535, Metabolic Activation: NONE, Method: STANDARD PLATE

## CC(C)(C)NC[C@H](O)COc1ccccc1C1CCCC1
[1]
  mutagenic call: active; positive
[2]
  mutagenic call: inactive; negative
[3]
  mutagenic call: inactive; negative
[4]
  mutagenic call: inactive; negative
Test System: AMES SALMONELLA TYPHIMURIUM, Strain/Indicator: TA102, Metabolic Activation: NONE, Method: STANDARD PLATE
  mutagenic call: inactive; negative
Test System: AMES SALMONELLA TYPHIMURIUM, Strain/Indicator: TA102, Metabolic Activation: RAT, LIVER, S-9, AROCLOR 1254, Method: STANDARD PLATE
  mutagenic call: inactive; negative

## Cc1ccc(C#N)cc1
Test System: AMES SALMONELLA TYPHIMURIUM, Strain/Indicator: TA97, Metabolic Activation: HAMSTER, LIVER, S-9, AROCLOR 1254 (10%), Method: PREINCUBATION
  mutagenic call: inactive; negative
Test System: AMES SALMONELLA TYPHIMURIUM, Strain/Indicator: TA97, Metabolic Activation: HAMSTER, LIVER, S-9, AROCLOR 1254 (30%), Method: PREINCUBATION
  mutagenic call: inactive; negative
Test System: AMES SALMONELLA TYPHIMURIUM, Strain/Indicator: TA97, Metabolic Activation: NONE, Method: PREINCUBATION
  mutagenic call: inactive; negative
Test System: AMES SALMONELLA TYPHIMURIUM, Strain/Indicator: TA97, Metabolic Activation: RAT, LIVER, S-9, AROCLOR 1254 (10%), Method: PREINCUBATION
  mutagenic call: inactive; negative
Test System: AMES SALMONELLA TYPHIMURIUM, Strain/Indicator: TA97, Metabolic Activation: RAT, LIVER, S-9, AROCLOR 1254 (30%), Method: PREINCUBATION
  mutagenic call: inactive; negative
Test System: AMES SALMONELLA TYPHIMURIUM, Strain/Indicator: TA98, Metabolic Activation: HAMSTER, LIVER, S-9, AROCLOR 1254 (10%), Method: PREINCUBATION
  mutagenic call: inactive; negative
Test System: AMES SALMONELLA TYPHIMURIUM, Strain/Indicator: TA98, Metabolic Activation: HAMSTER, LIVER, S-9, AROCLOR 1254 (30%), Method: PREINCUBATION
  mutagenic call: inactive; negative
Test System: AMES SALMONELLA TYPHIMURIUM, Strain/Indicator: TA98, Metabolic Activation: NONE, Method: PREINCUBATION
  mutagenic call: inactive; negative
Test System: AMES SALMONELLA TYPHIMURIUM, Strain/Indicator: TA98, Metabolic Activation: RAT, LIVER, S-9, AROCLOR 1254 (10%), Method: PREINCUBATION
  mutagenic call: inactive; negative
Test System: AMES SALMONELLA TYPHIMURIUM, Strain/Indicator: TA98, Metabolic Activation: RAT, LIVER, S-9, AROCLOR 1254 (30%), Method: PREINCUBATION
  mutagenic call: inactive; negative
Test System: AMES SALMONELLA TYPHIMURIUM, Strain/Indicator: TA100, Metabolic Activation: HAMSTER, LIVER, S-9, AROCLOR 1254 (10%), Method: PREINCUBATION
  mutagenic call: inactive; negative
Test System: AMES SALMONELLA TYPHIMURIUM, Strain/Indicator: TA100, Metabolic Activation: HAMSTER, LIVER, S-9, AROCLOR 1254 (30%), Method: PREINCUBATION
  mutagenic call: inactive; negative
Test System: AMES SALMONELLA TYPHIMURIUM, Strain/Indicator: TA100, Metabolic Activation: NONE, Method: PREINCUBATION
  mutagenic call: inactive; negative
Test System: AMES SALMONELLA TYPHIMURIUM, Strain/Indicator: TA100, Metabolic Activation: RAT, LIVER, S-9, AROCLOR 1254 (10%), Method: PREINCUBATION
  mutagenic call: inactive; negative
Test System: AMES SALMONELLA TYPHIMURIUM, Strain/Indicator: TA100, Metabolic Activation: RAT, LIVER, S-9, AROCLOR 1254 (30%), Method: PREINCUBATION
  mutagenic call: inactive; negative
Test System: AMES SALMONELLA TYPHIMURIUM, Strain/Indicator: TA1535, Metabolic Activation: HAMSTER, LIVER, S-9, AROCLOR 1254 (10%), Method: PREINCUBATION
  mutagenic call: inactive; negative
Test System: AMES SALMONELLA TYPHIMURIUM, Strain/Indicator: TA1535, Metabolic Activation: HAMSTER, LIVER, S-9, AROCLOR 1254 (30%), Method: PREINCUBATION
  mutagenic call: inactive; negative
Test System: AMES SALMONELLA TYPHIMURIUM, Strain/Indicator: TA1535, Metabolic Activation: NONE, Method: PREINCUBATION
  mutagenic call: inactive; negative
Test System: AMES SALMONELLA TYPHIMURIUM, Strain/Indicator: TA1535, Metabolic Activation: RAT, LIVER, S-9, AROCLOR 1254 (10%), Method: PREINCUBATION
  mutagenic call: inactive; negative
Test System: AMES SALMONELLA TYPHIMURIUM, Strain/Indicator: TA1535, Metabolic Activation: RAT, LIVER, S-9, AROCLOR 1254 (30%), Method: PREINCUBATION
  mutagenic call: inactive; negative

## COP(=O)(NC(C)=O)SC (stereo not drawn)
[1]
  mutagenic call: inactive; negative
[3]
  mutagenic call: inactive; negative
[5]
  mutagenic call: inactive; negative
Test System: Mouse Lymphoma, Strain/Indicator: L5178Y (TK+/TK-), Metabolic Activation: None, Method: Suspension/Plate
  mutagenic call: active; positive; dose-dependent increase
Test System: Mouse Lymphoma, Strain/Indicator: L5178Y (TK+/TK-), Metabolic Activation: Rat, liver S-9, Method: Suspension/Plate
  mutagenic call: active; positive; dose-dependent increase

## CCCOS(=O)(=O)OCCC
End Point: In vitro micronucleus, Test System: Chinese Hamster Ovary (CHO-WBL) cells, Metabolic Activation: None
  mutagenic call: active; positive (p<0.01)

## C=C(C)C(C)Cl (stereo not drawn)
Test System: AMES SALMONELLA TYPHIMURIUM, Strain/Indicator: TA100, Metabolic Activation: NONE, Method: LIQUID SUSPENSION
  mutagenic call: active; positive

## O=CNc1nc(-c2ccc([N+](=O)[O-])cc2)cs1
Test System: AMES SALMONELLA TYPHIMURIUM, Strain/Indicator: TA98, Metabolic Activation: RAT, LIVER, S-9, KC500 OR PHENOBARBITAL, Method: LIQUID SUSPENSION
  mutagenic call: active; positive
Test System: AMES SALMONELLA TYPHIMURIUM, Strain/Indicator: TA100, Metabolic Activation: RAT, LIVER, S-9, KC500 OR PHENOBARBITAL, Method: LIQUID SUSPENSION
  mutagenic call: active; positive

## CC(=O)CC(=O)CCC(=O)O
Test System: AMES SALMONELLA TYPHIMURIUM, Strain/Indicator: TA98, Metabolic Activation: HAMSTER, LIVER, S-9, AROCLOR 1254, Method: STANDARD PLATE
  mutagenic call: inactive; negative
[1]
  mutagenic call: inactive; negative
[2]
  mutagenic call: inactive; negative
Test System: AMES SALMONELLA TYPHIMURIUM, Strain/Indicator: TA100, Metabolic Activation: HAMSTER, LIVER, S-9, AROCLOR 1254, Method: STANDARD PLATE
  mutagenic call: inactive; negative
[3]
  mutagenic call: inactive; negative
[4]
  mutagenic call: inactive; negative
Test System: AMES SALMONELLA TYPHIMURIUM, Strain/Indicator: TA1535, Metabolic Activation: HAMSTER, LIVER, S-9, AROCLOR 1254, Method: STANDARD PLATE
  mutagenic call: inactive; negative
[5]
  mutagenic call: inactive; negative
Test System: AMES SALMONELLA TYPHIMURIUM, Strain/Indicator: TA1535, Metabolic Activation: RAT, LIVER, S-9, AROCLOR 1254, Method: STANDARD PLATE
  mutagenic call: inactive; negative
Test System: AMES SALMONELLA TYPHIMURIUM, Strain/Indicator: TA1537, Metabolic Activation: HAMSTER, LIVER, S-9, AROCLOR 1254, Method: STANDARD PLATE
  mutagenic call: inactive; negative
Test System: AMES SALMONELLA TYPHIMURIUM, Strain/Indicator: TA1537, Metabolic Activation: NONE, Method: STANDARD PLATE
  mutagenic call: inactive; negative
Test System: AMES SALMONELLA TYPHIMURIUM, Strain/Indicator: TA1537, Metabolic Activation: RAT, LIVER, S-9, AROCLOR 1254, Method: STANDARD PLATE
  mutagenic call: inactive; negative
Test System: AMES SALMONELLA TYPHIMURIUM, Strain/Indicator: TA1538, Metabolic Activation: HAMSTER, LIVER, S-9, AROCLOR 1254, Method: STANDARD PLATE
  mutagenic call: inactive; negative
Test System: AMES SALMONELLA TYPHIMURIUM, Strain/Indicator: TA1538, Metabolic Activation: NONE, Method: STANDARD PLATE
  mutagenic call: inactive; negative
Test System: AMES SALMONELLA TYPHIMURIUM, Strain/Indicator: TA1538, Metabolic Activation: RAT, LIVER, S-9, AROCLOR 1254, Method: STANDARD PLATE
  mutagenic call: inactive; negative
Test System: CHINESE HAMSTER V-79, Strain/Indicator: V-79 (HGPRT)/6-THIOGUANINE, Metabolic Activation: NONE
  mutagenic call: inactive; negative
Test System: MOUSE LYMPHOMA, Strain/Indicator: L5178Y (TK+/TK-), Metabolic Activation: NONE, Method: SUSPENSION/PLATE
  mutagenic call: inactive; negative. reevaluation of results: negative
Test System: MOUSE LYMPHOMA, Strain/Indicator: L5178Y (TK+/TK-), Metabolic Activation: RAT, LIVER, S-9, AROCLOR 1254, Method: SUSPENSION/PLATE
  mutagenic call: active; positive. reevaluation of results: positive

From PubChem BioAssay AID1259407 (Chemical Carcinogenesis Research Information System (CCRIS), 2018)
